Results published in patent publication US11458180B2, “Environmentally-friendly preparation method of composition containing anti-inflammatory active ingredients and use of composition” (SHANGHAI JAKA BIOTECH CO., LTD., priority 2019, dated 2022).

System: PGE-2
Assay: Anti-inflammatory effect: LPS-induced PGE-2 expression by ELISA
Type: cell-based, mouse
Conditions: LPS 1 μg/ml stimulated Raw 264.7 cells, 10 μM, relative to LPS group
Protocol: In this experiment, Raw 264.7 cells were stimulated by LPS, then cell culture was collected, and the expression of the inflammatory factor PGE-2 was determined by enzyme-linked immunosorbent assay (ELISA). The compositions obtained in the examples and comparative examples were compared in terms of the influence on anti-inflammatory effects. Raw264.7 cells and LPS were used for the experiment.
Raw264.7 cells at logarithmic growth phase were collected as follows: culture medium was discarded, and the cells were washed twice with PBS, added with 0.25% trypsin, and placed at 37° C. for 5 min; digestion was terminated with DMEM complete culture medium including 10% FBS and 1% PS, and a resulting solution was centrifuged at 1,000 rpm for 3 min; and a resulting supernatant was discarded, and obtained cells were resuspended in complete culture medium and counted. A cell concentration was adjusted to 5×10^5 cells/ml, and a resulting cell suspension was added to a 96-well plate at 100 µl/well. […]
After the treatment, cell culture was collected to a new 96-well plate, and the expression of PGE-2 was determined by ELISA according to instructions of a kit. A PGE-2 content (E) was calculated according to a standard curve, and relative to the LPS group, a relative inhibition rate was calculated for each sample (inhibition rate (%)=(1-Etest substance group/ELPS group)×100).

Question: How did the “inhibition rate of PGE-2 expression” value turn out when `C[C@@H]1C[C@H]2[C@@H]3CCC4=CC(=O)C=C[C@]4(C)[C@@]3(F)[C@@H](O)C[C@]2(C)[C@@]1(O)C(=O)CO` [Dex, dexamethasone] was run?
Answer: Its value is 75.27%.
